Measured values taken from patent US11801256B2, “Antidepressant-psilocybin co-treatment to assist psychotherapy” (Universitätsspital Basel, priority 2021, dated 2023).
Like-named read-outs stand apart in the source and are kept apart here.

What was measured:
healthy subjects [1] = assay: Adjective Mood Rating Scale (AMRS); assay type: in vivo, human; details: escitalopram 14 days pretreatment vs placebo; P=0.007
Description: (§1) Treatment order was random and counterbalanced.
The 60-item Adjective Mood Rating Scale (AMRS) (Janke & Debus, 1978) was administered before and 2, 3, 5, and 7 hours after psilocybin administration.
The criterion for significance was p<0.05.

healthy subjects [2] = assay: 5 Dimensions of Altered States of Consciousness Scale (5D-ASC); assay type: in vivo, human; details: escitalopram 14 days pretreatment vs placebo
Description: as §1
5-Dimensional Altered States of Consciousness (5D-ASC): The 5-dimensional Altered States of Consciousness (5D-ASC) Scale is a visual analog scale consisting of 94 items (Dittrich, 1998; Studerus et al., 2010). The instrument contains five main scales (FIG. 17) and 11 newer subscales (FIG. 18) assessing mood, anxiety, derealization, depersonalization, changes in perception, auditory alterations, and reduced vigilance. The scale is well-validated (Studerus et al., 2010). The total ASC score is the sum of the three main dimensions/scales Oceanic Boundlessness (OB), Anxious Ego Dissolution (AED) and Visionary Restructuralization (VR). There are two additional main scales measuring Auditory Alterations (AA) and Vigilance Reduction (VIR) (FIG. 17). The 5D-ASC scale was administered once at the end of the session and subjects were instructed to retrospectively rate peak alterations that have been experienced during the study session. Each item of the scale is scored on a 0-100 mm VAS. The attribution of the individual items to the subscales of the 5D-ASC was analyzed according to (Dittrich, 1998; Studerus et al., 2010) and as shown in FIG. 18. The scale was be administered once at the end of each test session.

healthy subjects [3] = assay: Mystical Experience Questionnaire (MEQ30, MEQ43); assay type: in vivo, human; details: escitalopram 14 days pretreatment vs placebo; P=0.001
Description: as §1
Mystical experiences were assessed using the German version (Liechti et al., 2017) of the 100-item States of Consciousness Questionnaire (SOCQ) (Griffiths et al., 2006) that includes the 43-item and newer 30-item MEQ (MEQ43 (Griffiths et al., 2006) and MEQ30 (Barrett et al., 2015)). The scale was be administered once at the end of each test session.

healthy subjects [4] = assay: Autonomic measures (blood pressure, heart rate, body temperature, pupil size)
Description: Study design: A double-blind, cross-over design was used with two conditions. […] 2) Pretreatment with placebo for 14 days with the last administration on the study day and administration of 25 mg psilocybin 2 hours later. Treatment order was random and counterbalanced. Between the 14 days pretreatment and the study day, there were at least 2 days washout until the next pretreatment phase began.
Autonomic measures: Blood pressure, heart rate, and body temperature were recorded at baseline and repeatedly throughout the session. Blood pressure (systolic and diastolic) and heart rate were measured with an automatic oscillometric device. Body temperature was measured with an ear thermometer as previously described in detail (Hysek et al., 2010). Measures were taken before and at 0, 0.25, 0.5, 0.75, 1, 1.5, 2, 2.5, 3, 4, 5, 6 and 7 hours after psilocybin administration.
Data analysis: Peak (Emax and/or Emin) or peak change from baseline (ΔEmax) values were determined for repeated measures. The values were then analyzed using paired T-tests using Statistica 12 software (StatSoft, Tulsa, OK, USA). The criterion for significance was p<0.05.

healthy subjects [5] = assay: Adverse effects (list of complaints) and adverse events; assay type: in vivo, human
Description: as §1
Adverse effects (list of complaints): The list of complaints (LC) consists of 66 items offering a global score measuring physical and general discomfort (Zerssen, 1976). This scale yields a total adverse effects score and reliably measures physical and general discomfort. The LC list was administered 7 hours after administration of the drug with reference to complaints throughout the entire session.

[6] = Plasma drug concentrations and pharmacokinetic analyses; assay type: in vivo, human; details: for concentration at 14 days: human, in vivo
Description: The blood samples were immediately centrifuged, and the plasma was subsequently stored at −80° C. until analysis.
This allows to determine the concentrations of unconjugated psilocin and of psilocin glucuronide which corresponds to the difference between samples that were incubated with and without glucuronidase.

BDNF = assay: Plasma BDNF levels (ELISA); assay type: in vivo, human; details: escitalopram 14 days pretreatment vs placebo
Description: Psychedelics can induce neuroregeneration (Ly et al., 2018). Plasma BDNF levels are a possible biomarker for neurogenesis (Haile et al., 2014). Psychedelics increase BDNF (Holze et al., 2021; Hutten et al., 2020) and higher BDNF levels were associated with lower depression ratings after administration of psychedelics (de Almeida et al., 2019). Plasma BDNF levels were measured at baseline and 4 and 7 hours after drug administration using the Biosensis Mature BDNF Rapid ELISA Kit (Thebarton, Australia) (Akimoto et al., 2019).

CYP2C19 = CYP2C19 (Homo sapiens, UniProt P33261); details: FDA, 2017; Swissmedic, 2020; cited from earlier work
2D6 = 2D6 (Homo sapiens, UniProt P10635); details: FDA, 2017; Swissmedic, 2020; cited from earlier work
[7] = escitalopram pretreatment compared with placebo pretreatment (summary)
[8] = any time during escitalopram pretreatment
[9] = escitalopram 14 days pretreatment vs placebo

Sequence of CYP2C19 (P33261 whole entry): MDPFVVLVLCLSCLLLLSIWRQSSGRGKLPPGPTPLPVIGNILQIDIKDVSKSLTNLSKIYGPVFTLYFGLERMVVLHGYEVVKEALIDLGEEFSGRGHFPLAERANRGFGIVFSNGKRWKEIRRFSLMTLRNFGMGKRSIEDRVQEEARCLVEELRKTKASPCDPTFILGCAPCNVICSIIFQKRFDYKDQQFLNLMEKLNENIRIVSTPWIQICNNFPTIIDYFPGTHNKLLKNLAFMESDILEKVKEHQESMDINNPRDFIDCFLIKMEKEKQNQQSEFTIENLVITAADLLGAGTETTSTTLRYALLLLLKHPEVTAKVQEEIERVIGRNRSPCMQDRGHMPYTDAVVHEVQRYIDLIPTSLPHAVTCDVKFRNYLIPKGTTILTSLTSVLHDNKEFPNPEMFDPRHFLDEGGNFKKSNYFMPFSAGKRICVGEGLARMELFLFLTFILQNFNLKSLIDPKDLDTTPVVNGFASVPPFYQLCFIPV
Sequence of 2D6 (P10635 whole entry): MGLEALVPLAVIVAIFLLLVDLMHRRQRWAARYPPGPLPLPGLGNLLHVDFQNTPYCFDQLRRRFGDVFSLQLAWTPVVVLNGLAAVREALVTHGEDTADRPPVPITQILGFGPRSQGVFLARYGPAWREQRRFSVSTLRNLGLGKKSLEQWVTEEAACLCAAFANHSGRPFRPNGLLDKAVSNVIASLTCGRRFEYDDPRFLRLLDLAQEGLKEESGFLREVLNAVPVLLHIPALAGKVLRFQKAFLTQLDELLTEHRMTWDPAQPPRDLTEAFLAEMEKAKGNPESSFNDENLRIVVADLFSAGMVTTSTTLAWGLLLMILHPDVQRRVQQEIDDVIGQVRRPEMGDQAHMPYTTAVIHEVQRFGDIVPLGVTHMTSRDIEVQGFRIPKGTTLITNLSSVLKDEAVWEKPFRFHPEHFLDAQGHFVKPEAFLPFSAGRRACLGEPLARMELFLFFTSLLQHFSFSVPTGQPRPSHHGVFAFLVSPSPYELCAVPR

## CN(C)CCC[C@@]1(c2ccc(F)cc2)OCc2cc(C#N)ccc21 [Escitalopram, escitalopram]
Healthy subjects [1]
  effect on psilocybin-induced anxiety in the AMRS: significantly reduced
Healthy subjects [2]; P=0.026
  effect on psilocybin-induced anxiety in the 5D-ASC: significantly reduced
Healthy subjects [2]; P=0.029
  effect on psilocybin-induced anxious ego dissolution in the 5D-ASC: significantly reduced
Healthy subjects [3]
  effect on psilocybin-induced nadir effects in the MEQ43: significantly reduced
Healthy subjects [4]; escitalopram 14 days pretreatment vs placebo, P<0.001
  effect on psilocybin-induced elevations in peak systolic blood pressure: reduced
Healthy subjects [4]; escitalopram 14 days pretreatment vs placebo, P=0.001
  effect on psilocybin-induced elevations in rate pressure product: reduced
Healthy subjects [4]; escitalopram 14 days pretreatment vs placebo, P=0.002
  effect on psilocybin-induced pupil dilation: reduced
Healthy subjects [4]; escitalopram 14 days pretreatment vs placebo, P=0.017
  effect on psilocybin-induced elevations in peak diastolic blood pressure: reduced
Healthy subjects [4]; escitalopram pretreatment compared to psilocybin alone (summary)
  effect on psilocybin-induced cardio-stimulant effects: reduced
Healthy subjects [4]; [7]
  effect on adverse autonomic effects of psilocybin: significantly reduced
Healthy subjects [5]; [8]
  adverse events during pretreatment: bruxism: 2 subjects
  adverse events during pretreatment: decreased libido: 5 subjects
  adverse events during pretreatment: diarrhea: 2 subjects
  adverse events during pretreatment: difficulty concentrating: 1 subjects
  adverse events during pretreatment: dizziness: 2 subjects
  adverse events during pretreatment: dysorgasmia: 2 subjects
  adverse events during pretreatment: feeling depressed: 3 subjects
  adverse events during pretreatment: headache: 6 subjects
  adverse events during pretreatment: increased appetite: 2 subjects
  adverse events during pretreatment: insomnia: 2 subjects
  adverse events during pretreatment: loss of appetite: 3 subjects
  adverse events during pretreatment: nausea: eight
  adverse events during pretreatment: restless legs: 2 subjects
  adverse events during pretreatment: tiredness: 6 subjects
  adverse events during pretreatment: visual disturbance: 1 subjects
Healthy subjects [5]; [7]
  effect on other adverse effects of psilocybin: significantly reduced
Healthy subjects [5]; participant on escitalopram pretreatment, five days, prior to psilocybin
  severe adverse event (symptomatic vertebral disc hernia): one
[6]; after 14 days escitalopram (10 mg 7 days, 20 mg 7 days)
  peak plasma concentrations (mean, range): 41 (35-53) ng/mL
[6]; [9]
  effect on the pharmacokinetics of 4-HIAA: did not relevantly or significantly alter
  effect on the pharmacokinetics of psilocin: did not relevantly or significantly alter
  effect on the pharmacokinetics of psilocin glucuronide: did not relevantly or significantly alter
[6]; after 14 days escitalopram (10 mg 7 days, 20 mg 7 days), read-out: plasma concentrations (mean, range)
  concentration at 14 days: 41 ng/mL
[6]; after 14 days escitalopram, described as high, read-out: plasma concentrations in all subjects
  concentration at 14 days: < 35 ng/mL
BDNF
  effect on the psilocybin-induced moderate increase in BDNF: did not significantly alter
CYP2C19
  inhibition of CYP2C19 function: slightly inhibits
2D6
  inhibition of 2D6 function: slightly inhibits
